Measurements as given in patent publication US20240124427A1, “HYDROXYHETEROCYCLOALKANE-CARBAMOYL DERIVATIVES” (Idorsia Pharmaceuticals Ltd, priority 2021, published 2024).
pIC50: −log10 of the molar value.

molecular target: human Gal-3 (hGal-3) (Homo sapiens (Human), UniProt P17931); test: Competitive binding assay: biotinylated hGal-3 binding to microplate-adsorbed asialofetuin (ASF); conditions: Activity on hGal-3; mean values of several measurements; mixture of diastereomers measured where not separated
Description: The inhibitory activity of compounds is determined in competitive binding assays. This spectrophotometric assay measures the binding of biotinylated human Gal-3 (hGal-3) or human Gal-1 (hGal-1), respectively, to a microplate-adsorbed glycoprotein, asialofetuin (ASF) (Proc Natl Acad Sci USA. 2013 Mar 26;110(13):5052-7.). Alternatively, and preferably, a human Gal-1 version in which all six cysteines are substituted by serines may be used.
Briefly, compounds are serially diluted in DMSO (working dilutions).
Plates are incubated for 3 hours at 4° C., then washed with cold assay buffer (3×50 uL), incubated for 1 hour with 25 μL/well of a streptavidin-peroxidase solution (diluted in assay buffer to 80 ng/mL) at 4° C., followed by further washing steps with assay buffer (3×50 uL). Finally, 25 μL/well of ABTS substrate is added.
The calculated IC50 values may fluctuate depending on the daily assay performance. Fluctuations of this kind are known to those skilled in the art. IC50 values from several measurements are given as mean values.

Chain of human Gal-3 (hGal-3) (P17931 whole entry): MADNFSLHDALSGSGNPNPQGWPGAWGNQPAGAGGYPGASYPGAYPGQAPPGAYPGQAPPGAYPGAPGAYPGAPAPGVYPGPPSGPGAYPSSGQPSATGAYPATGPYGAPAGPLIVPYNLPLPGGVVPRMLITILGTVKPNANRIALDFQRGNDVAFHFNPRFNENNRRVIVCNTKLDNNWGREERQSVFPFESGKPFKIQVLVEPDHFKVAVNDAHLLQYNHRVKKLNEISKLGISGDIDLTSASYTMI

| pIC50 | SMILES |
| --- | --- |
| 6.99 | CO[C@@H]1[C@@H](n2cc(-c3cc(F)c(F)c(F)c3)nn2)[C@@H](O)[C@@H](CO)O[C@H]1C(=O)N(c1cccc(Cl)c1)[C@H]1COC[C@@H]1O [Example 1, (2R,3R,4S,5R,6R)-N-(3-chlorophenyl)-5-hydroxy-6-(hydroxymethyl)-N-((3S,4R)-4-hydroxytetrahydrofuran-3-yl)-3-methoxy-4-(4-(3,4,5-trifluorophenyl)-1H-1,2,3-triazol-1-yl)tetrahydro-2H-pyran-2-carboxamide] |
| 7.10 | CO[C@@H]1[C@@H](n2cc(-c3cc(F)c(F)c(F)c3)nn2)[C@@H](O)[C@@H](CO)O[C@H]1C(=O)N(c1cccc(Br)c1)[C@H]1COC[C@@H]1O [Example 2, (2R,3R,4S,5R,6R)-N-(3-bromophenyl)-5-hydroxy-6-(hydroxymethyl)-N-((3S,4R)-4-hydroxytetrahydrofuran-3-yl)-3-methoxy-4-(4-(3,4,5-trifluorophenyl)-1H-1,2,3-triazol-1-yl)tetrahydro-2H-pyran-2-carboxamide] |
| 7.25 | CO[C@@H]1[C@@H](n2cc(-c3cc(F)c(F)c(F)c3)nn2)[C@@H](O)[C@@H](CO)O[C@H]1C(=O)N(c1cccc(I)c1)[C@H]1COC[C@@H]1O [Example 3, (2R,3R,4S,5R,6R)-5-hydroxy-6-(hydroxymethyl)-N-((3S,4R)-4-hydroxytetrahydrofuran-3-yl)-N-(3-iodophenyl)-3-methoxy-4-(4-(3,4,5-trifluorophenyl)-1H-1,2,3-triazol-1-yl)tetrahydro-2H-pyran-2-carboxamide] |
| 7.16 | CO[C@@H]1[C@@H](n2cc(-c3cc(F)c(F)c(F)c3)nn2)[C@@H](O)[C@@H](CO)O[C@H]1C(=O)N(c1cc(Cl)cc(C#N)c1)[C@H]1COC[C@@H]1O [Example 5, (2R,3R,4S,5R,6R)-N-(3-chloro-5-cyanophenyl)-5-hydroxy-6-(hydroxymethyl)-N-((3S,4R)-4-hydroxytetrahydrofuran-3-yl)-3-methoxy-4-(4-(3,4,5-trifluorophenyl)-1H-1,2,3-triazol-1-yl)tetrahydro-2H-pyran-2-carboxamide] |
| 7.28 | CO[C@@H]1[C@@H](n2cc(-c3cc(F)c(F)c(F)c3)nn2)[C@@H](O)[C@@H](CO)O[C@H]1C(=O)N(c1cc(Br)cc(Br)c1)[C@H]1COC[C@@H]1O [Example 6, (2R,3R,4S,5R,6R)-N-(3,5-dibromophenyl)-5-hydroxy-6-(hydroxymethyl)-N-((3S,4R)-4-hydroxytetrahydrofuran-3-yl)-3-methoxy-4-(4-(3,4,5-trifluorophenyl)-1H-1,2,3-triazol-1-yl)tetrahydro-2H-pyran-2-carboxamide] |
| 7.11 | CO[C@@H]1[C@@H](n2cc(-c3cc(F)c(F)c(F)c3)nn2)[C@@H](O)[C@@H](CO)O[C@H]1C(=O)N(c1cc(C)cc(Br)c1)[C@H]1COC[C@@H]1O [Example 8, (2R,3R,4S,5R,6R)-N-(3-bromo-5-methylphenyl)-5-hydroxy-6-(hydroxymethyl)-N-((3S,4R)-4-hydroxytetrahydrofuran-3-yl)-3-methoxy-4-(4-(3,4,5-trifluorophenyl)-1H-1,2,3-triazol-1-yl)tetrahydro-2H-pyran-2-carboxamide] |
| 7.00 | COc1cc(C#N)cc(N(C(=O)[C@@H]2O[C@H](CO)[C@H](O)[C@H](n3cc(-c4cc(F)c(F)c(F)c4)nn3)[C@H]2OC)[C@H]2COC[C@@H]2O)c1 [Example 9, (2R,3R,4S,5R,6R)-N-(3-cyano-5-methoxyphenyl)-5-hydroxy-6-(hydroxymethyl)-N-((3S,4R)-4-hydroxytetrahydrofuran-3-yl)-3-methoxy-4-(4-(3,4,5-trifluorophenyl)-1H-1,2,3-triazol-1-yl)tetrahydro-2H-pyran-2-carboxamide] |
| 6.87 | CO[C@@H]1[C@@H](n2cc(-c3cc(F)c(F)c(F)c3)nn2)[C@@H](O)[C@@H](CO)O[C@H]1C(=O)N(c1cc(C)cc(C#N)c1)[C@H]1COC[C@@H]1O [Example 10, (2R,3R,4S,5R,6R)-N-(3-cyano-5-methylphenyl)-5-hydroxy-6-(hydroxymethyl)-N-((3S,4R)-4-hydroxytetrahydrofuran-3-yl)-3-methoxy-4-(4-(3,4,5-trifluorophenyl)-1H-1,2,3-triazol-1-yl)tetrahydro-2H-pyran-2-carboxamide] |
| 6.91 | CO[C@@H]1[C@@H](n2cc(-c3cc(F)c(F)c(F)c3)nn2)[C@@H](O)[C@@H](CO)O[C@H]1C(=O)N(c1cc(F)cc(C#N)c1)[C@H]1COC[C@@H]1O [Example 11, (2R,3R,4S,5R,6R)-N-(3-cyano-5-fluorophenyl)-5-hydroxy-6-(hydroxymethyl)-N-((3S,4R)-4-hydroxytetrahydrofuran-3-yl)-3-methoxy-4-(4-(3,4,5-trifluorophenyl)-1H-1,2,3-triazol-1-yl)tetrahydro-2H-pyran-2-carboxamide] |
| 7.33 | CO[C@@H]1[C@@H](n2cc(-c3ccc(Br)c(F)c3F)nn2)[C@@H](O)[C@@H](CO)O[C@H]1C(=O)N(c1cc(Cl)cc(Cl)c1)[C@H]1COC[C@@H]1O [Example 12, (2R,3R,4S,5R,6R)-4-(4-(4-bromo-2,3-difluorophenyl)-1H-1,2,3-triazol-1-yl)-N-(3,5-dichlorophenyl)-5-hydroxy-6-(hydroxymethyl)-N-((3S,4R)-4-hydroxytetrahydrofuran-3-yl)-3-methoxytetrahydro-2H-pyran-2-carboxamide] |
| 7.82 | CO[C@@H]1[C@@H](n2cc(-c3ccc(Br)c(F)c3F)nn2)[C@@H](O)[C@@H](CO)O[C@H]1C(=O)N(c1cc(Br)cc(C#N)c1)[C@H]1COC[C@@H]1O [Example 13, (2R,3R,4S,5R,6R)-4-(4-(4-bromo-2,3-difluorophenyl)-1H-1,2,3-triazol-1-yl)-N-(3-bromo-5-cyanophenyl)-5-hydroxy-6-(hydroxymethyl)-N-((3S,4R)-4-hydroxytetrahydrofuran-3-yl)-3-methoxytetrahydro-2H-pyran-2-carboxamide] |
| 7.34 | CO[C@@H]1[C@@H](n2cc(-c3ccc(Br)c(F)c3F)nn2)[C@@H](O)[C@@H](CO)O[C@H]1C(=O)N(c1cc(C)cc(Br)c1)[C@H]1COC[C@@H]1O [Example 14, (2R,3R,4S,5R,6R)-4-(4-(4-bromo-2,3-difluorophenyl)-1H-1,2,3-triazol-1-yl)-N-(3-bromo-5-methylphenyl)-5-hydroxy-6-(hydroxymethyl)-N-((3S,4R)-4-hydroxytetrahydrofuran-3-yl)-3-methoxytetrahydro-2H-pyran-2-carboxamide] |
| 7.42 | CO[C@@H]1[C@@H](n2cc(-c3cc(F)c(C)c(F)c3)nn2)[C@@H](O)[C@@H](CO)O[C@H]1C(=O)N(c1cc(Cl)cc(Cl)c1)[C@H]1COC[C@@H]1O [Example 15, (2R,3R,4S,5R,6R)-N-(3,5-dichlorophenyl)-4-(4-(3,5-difluoro-4-methylphenyl)-1H-1,2,3-triazol-1-yl)-5-hydroxy-6-(hydroxymethyl)-N-((3S,4R)-4-hydroxytetrahydrofuran-3-yl)-3-methoxytetrahydro-2H-pyran-2-carboxamide] |
| 7.21 | CO[C@@H]1[C@@H](n2cc(-c3cc(F)c(C)c(F)c3)nn2)[C@@H](O)[C@@H](CO)O[C@H]1C(=O)N(c1cc(Br)cc(Br)c1)[C@H]1COC[C@@H]1O [Example 16, (2R,3R,4S,5R,6R)-N-(3,5-dibromophenyl)-4-(4-(3,5-difluoro-4-methylphenyl)-1H-1,2,3-triazol-1-yl)-5-hydroxy-6-(hydroxymethyl)-N-((3S,4R)-4-hydroxytetrahydrofuran-3-yl)-3-methoxytetrahydro-2H-pyran-2-carboxamide] |
